Series [1] deals with rats. Briefly: Acute oral toxicity to rats. It counts as in vivo, rat. As to conditions: ref Soderlund et al., 2002.
For series [2], the target named is rat Nav1.6 sodium channels (Rattus norvegicus, UniProt O88420). It counts as cell-based. The note with it: for Steady-state inactivation K (slope factor) / Activation K (slope factor) / Activation V0.5 (midpoint potential) / Steady-state inactivation V0.5 (midpoint potential) / Tail current decay time constant, fast component (τ1) / Peak current inactivation time constant, fast component (τfast) / Peak current inactivation time constant, slow component (τslow): pyrethroid 100 μM; for Steady-state inactivation K (slope factor) / Activation K (slope factor) / Activation V0.5 (midpoint potential) / Steady-state inactivation V0.5 (midpoint potential): Boltzmann fit; for Steady-state inactivation K (slope factor): control 7.02 ± 0.13; for Activation K (slope factor): control 8.02 ± 0.23; for Activation V0.5 (midpoint potential): control −17.0 ± 0.4; for Steady-state inactivation V0.5 (midpoint potential): control −50.3 ± 0.3; for Tail current decay time constant, fast component (τ1) / Peak current inactivation time constant, fast component (τfast) / Peak current inactivation time constant, slow component (τslow): mean ± SE; for Peak current inactivation time constant, fast component (τfast): control 1.32 ± 0.03; for Peak current inactivation time constant, slow component (τslow): control 10.93 ± 2.25; for Effect of repetitive depolarization on modification (words): trains of high-frequency depolarizing prepulses.
Sequence of rat Nav1.6 sodium channels (O88420 whole entry): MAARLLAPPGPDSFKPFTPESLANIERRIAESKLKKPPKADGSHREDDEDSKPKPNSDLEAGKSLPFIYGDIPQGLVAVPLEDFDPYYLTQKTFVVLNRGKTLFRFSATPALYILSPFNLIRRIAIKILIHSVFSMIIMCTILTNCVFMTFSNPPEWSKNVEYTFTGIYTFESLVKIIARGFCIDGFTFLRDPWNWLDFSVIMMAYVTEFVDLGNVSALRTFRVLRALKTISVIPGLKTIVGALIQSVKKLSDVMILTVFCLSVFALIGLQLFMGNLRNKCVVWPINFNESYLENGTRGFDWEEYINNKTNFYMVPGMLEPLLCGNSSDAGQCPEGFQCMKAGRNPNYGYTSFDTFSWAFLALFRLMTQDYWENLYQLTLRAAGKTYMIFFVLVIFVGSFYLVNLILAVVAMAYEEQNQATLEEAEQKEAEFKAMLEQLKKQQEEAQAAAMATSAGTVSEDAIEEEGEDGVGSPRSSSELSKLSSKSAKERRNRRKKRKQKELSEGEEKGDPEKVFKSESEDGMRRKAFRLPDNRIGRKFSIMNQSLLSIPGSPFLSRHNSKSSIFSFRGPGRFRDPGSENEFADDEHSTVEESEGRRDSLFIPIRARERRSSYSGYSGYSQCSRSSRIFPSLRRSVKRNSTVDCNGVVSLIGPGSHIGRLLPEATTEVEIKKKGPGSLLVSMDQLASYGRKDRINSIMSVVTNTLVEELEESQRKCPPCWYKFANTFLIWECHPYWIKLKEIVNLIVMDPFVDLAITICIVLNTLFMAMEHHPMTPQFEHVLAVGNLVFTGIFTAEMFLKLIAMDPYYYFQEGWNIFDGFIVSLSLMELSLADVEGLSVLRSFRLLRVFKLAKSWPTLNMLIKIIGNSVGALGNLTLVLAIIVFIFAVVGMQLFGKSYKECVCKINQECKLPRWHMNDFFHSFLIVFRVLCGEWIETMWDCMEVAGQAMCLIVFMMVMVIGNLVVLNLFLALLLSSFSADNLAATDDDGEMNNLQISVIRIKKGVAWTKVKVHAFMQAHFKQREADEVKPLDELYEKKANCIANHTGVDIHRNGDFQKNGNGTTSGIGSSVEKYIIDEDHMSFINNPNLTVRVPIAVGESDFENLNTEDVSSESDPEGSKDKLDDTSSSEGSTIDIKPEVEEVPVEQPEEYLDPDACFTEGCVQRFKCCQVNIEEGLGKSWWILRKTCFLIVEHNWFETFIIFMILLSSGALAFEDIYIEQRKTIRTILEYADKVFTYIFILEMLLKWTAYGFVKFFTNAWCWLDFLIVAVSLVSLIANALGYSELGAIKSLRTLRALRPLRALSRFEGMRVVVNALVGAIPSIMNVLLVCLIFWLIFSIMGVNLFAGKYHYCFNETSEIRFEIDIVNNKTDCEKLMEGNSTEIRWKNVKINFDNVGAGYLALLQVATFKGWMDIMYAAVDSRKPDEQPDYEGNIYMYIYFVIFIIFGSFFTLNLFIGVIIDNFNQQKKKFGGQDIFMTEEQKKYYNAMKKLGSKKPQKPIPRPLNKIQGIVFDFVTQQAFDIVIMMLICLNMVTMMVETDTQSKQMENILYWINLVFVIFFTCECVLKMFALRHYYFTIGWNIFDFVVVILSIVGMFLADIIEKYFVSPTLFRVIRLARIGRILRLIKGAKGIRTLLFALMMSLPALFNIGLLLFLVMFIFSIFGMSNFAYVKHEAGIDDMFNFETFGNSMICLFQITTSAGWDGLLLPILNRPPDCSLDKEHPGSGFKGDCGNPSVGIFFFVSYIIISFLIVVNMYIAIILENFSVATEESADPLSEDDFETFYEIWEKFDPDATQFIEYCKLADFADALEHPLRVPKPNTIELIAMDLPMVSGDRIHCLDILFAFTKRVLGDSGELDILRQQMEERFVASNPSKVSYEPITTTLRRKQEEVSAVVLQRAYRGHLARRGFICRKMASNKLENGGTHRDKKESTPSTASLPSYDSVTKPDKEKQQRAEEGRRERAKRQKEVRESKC
Sequence of rat Nav1.6 sodium channels (Q00954 19-218 partner): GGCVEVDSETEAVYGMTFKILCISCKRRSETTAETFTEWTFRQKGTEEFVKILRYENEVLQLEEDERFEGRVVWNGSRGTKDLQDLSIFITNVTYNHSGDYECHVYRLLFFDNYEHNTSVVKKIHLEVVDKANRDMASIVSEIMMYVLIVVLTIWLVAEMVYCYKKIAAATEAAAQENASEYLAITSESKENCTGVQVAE
Sequence of rat Nav1.6 sodium channels (P54900 30-215 partner): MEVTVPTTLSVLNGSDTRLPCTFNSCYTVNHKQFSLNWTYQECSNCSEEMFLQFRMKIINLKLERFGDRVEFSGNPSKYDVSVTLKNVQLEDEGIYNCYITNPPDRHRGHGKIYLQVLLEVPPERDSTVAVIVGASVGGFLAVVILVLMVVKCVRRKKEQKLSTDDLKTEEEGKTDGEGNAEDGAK

Series [3] addresses rat Nav1.2 sodium channels (Rattus norvegicus, UniProt P04775, N209D). In kind it is cell-based.
Series [4] relates to rats. The note with it: rat, in vivo; cited from earlier work.
The mark [5] stands for this setting: 0 prepulses, Hill fit, mean ± SE of 5.
[6] abbreviates: 100 prepulses, Hill fit, mean ± SE of 5.
Where [7] appears, read: EC10 0 prepulses vs 100 prepulses.

SMILES strings stand for the structures. Read-outs that look alike come from different tables or passages of the source. Marks after values point to notes of the source that are not given here.

Sequence of rat Nav1.2 sodium channels (P04775 whole entry N209D): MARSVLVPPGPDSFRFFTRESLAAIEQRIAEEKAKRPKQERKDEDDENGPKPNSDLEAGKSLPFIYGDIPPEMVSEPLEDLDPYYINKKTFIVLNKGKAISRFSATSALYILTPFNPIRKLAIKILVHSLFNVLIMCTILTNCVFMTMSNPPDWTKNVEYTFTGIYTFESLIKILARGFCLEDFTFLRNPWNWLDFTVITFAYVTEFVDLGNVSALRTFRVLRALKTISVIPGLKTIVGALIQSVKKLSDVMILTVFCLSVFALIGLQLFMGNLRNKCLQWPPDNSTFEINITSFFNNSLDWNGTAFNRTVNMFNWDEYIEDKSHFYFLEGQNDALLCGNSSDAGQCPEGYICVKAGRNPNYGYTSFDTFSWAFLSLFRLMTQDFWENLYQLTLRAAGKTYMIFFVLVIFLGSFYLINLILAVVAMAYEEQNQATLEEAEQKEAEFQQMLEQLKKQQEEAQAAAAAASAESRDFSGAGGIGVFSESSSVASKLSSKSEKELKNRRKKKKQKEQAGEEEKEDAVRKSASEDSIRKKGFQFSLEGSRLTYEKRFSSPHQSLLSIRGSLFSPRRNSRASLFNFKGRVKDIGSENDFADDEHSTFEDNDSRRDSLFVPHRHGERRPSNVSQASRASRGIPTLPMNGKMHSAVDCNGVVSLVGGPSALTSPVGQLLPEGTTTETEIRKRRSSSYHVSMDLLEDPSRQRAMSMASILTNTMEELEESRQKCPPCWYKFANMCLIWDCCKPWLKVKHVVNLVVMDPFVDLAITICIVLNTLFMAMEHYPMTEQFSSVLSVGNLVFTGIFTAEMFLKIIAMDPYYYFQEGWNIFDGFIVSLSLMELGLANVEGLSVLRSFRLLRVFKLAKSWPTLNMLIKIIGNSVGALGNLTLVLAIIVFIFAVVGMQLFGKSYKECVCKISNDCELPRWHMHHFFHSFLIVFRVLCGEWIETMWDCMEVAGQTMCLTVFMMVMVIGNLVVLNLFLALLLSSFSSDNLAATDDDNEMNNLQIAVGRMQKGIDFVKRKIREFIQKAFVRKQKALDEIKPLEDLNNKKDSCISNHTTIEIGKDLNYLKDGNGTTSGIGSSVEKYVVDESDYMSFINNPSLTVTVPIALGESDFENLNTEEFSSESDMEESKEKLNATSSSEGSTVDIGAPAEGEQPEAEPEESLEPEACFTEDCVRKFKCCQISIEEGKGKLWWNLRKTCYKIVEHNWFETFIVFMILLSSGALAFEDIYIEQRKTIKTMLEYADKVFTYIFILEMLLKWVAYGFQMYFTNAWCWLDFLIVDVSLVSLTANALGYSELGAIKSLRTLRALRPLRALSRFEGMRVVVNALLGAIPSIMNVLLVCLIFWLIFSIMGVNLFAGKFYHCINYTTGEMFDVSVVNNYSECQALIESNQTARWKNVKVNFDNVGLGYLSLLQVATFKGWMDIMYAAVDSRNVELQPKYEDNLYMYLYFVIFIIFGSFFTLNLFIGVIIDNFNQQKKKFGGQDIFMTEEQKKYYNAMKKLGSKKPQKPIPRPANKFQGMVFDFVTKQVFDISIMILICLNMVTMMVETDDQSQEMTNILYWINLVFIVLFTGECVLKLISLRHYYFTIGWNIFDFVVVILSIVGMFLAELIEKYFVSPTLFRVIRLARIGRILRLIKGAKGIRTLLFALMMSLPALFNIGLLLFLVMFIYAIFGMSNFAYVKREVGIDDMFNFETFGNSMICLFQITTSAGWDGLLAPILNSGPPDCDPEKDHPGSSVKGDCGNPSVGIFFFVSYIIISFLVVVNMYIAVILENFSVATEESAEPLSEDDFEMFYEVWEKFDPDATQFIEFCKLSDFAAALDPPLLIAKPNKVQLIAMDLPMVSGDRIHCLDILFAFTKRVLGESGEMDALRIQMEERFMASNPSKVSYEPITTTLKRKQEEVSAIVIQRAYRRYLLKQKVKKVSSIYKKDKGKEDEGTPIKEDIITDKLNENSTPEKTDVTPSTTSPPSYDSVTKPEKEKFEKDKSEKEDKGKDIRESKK
Sequence of rat Nav1.2 sodium channels (Q00954 19-218 partner): as the sequence (Q00954 19-218 partner) above
Sequence of rat Nav1.2 sodium channels (P54900 30-215 partner): as the sequence (P54900 30-215 partner) above

As to `Cc1c(F)c(F)c(COC(=O)[C@@H]2[C@H](/C=C(\Cl)C(F)(F)F)C2(C)C)c(F)c1F` (racemic) [tefluthrin], in series [1], the “Acute oral LD50 lower than that of deltamethrin” value is given as “approximately 5 fold”. For the same molecule, in series [2] (setting [5]), the “EC10, resting modification” value came to 14.1 ± 3.7 µM. For the same molecule, in series [2] (100 μM), the “Prepulse number up to which extent of modification increased, then stable” value is 80 prepulses and the “Tail current τ1 relative to S-bioallethrin-induced currents” value is on record as “approximately 4 fold”. Besides, the “Increase of extent of channel modification by repetitive depolarization” value in series [2] (100 μM, 100 prepulses vs 0 prepulses) worked out at 2.8 fold. The “Potency relative to deltamethrin as use-dependent modifier (EC10)” value in series [2] (100 prepulses) was ~ 10 fold. The “EC10, use-dependent modification” value in series [2] (setting [6]) was 0.95 ± 0.22 µM. In addition, the “Increase of sensitivity (EC10) to the compound by repetitive depolarization” value in series [2] (setting [7]) is given as ~ 15 fold. In addition, in series [2] (abstract summary, state not specified), the “Sensitivity of Nav1.6 isoform relative to Nav1.2 isoform (concentration–effect data)” value is recorded as “at least 15 fold”. Besides, in series [2], the “Steady-state inactivation K (slope factor)” value was 6.03 ± 0.10 ^b, the “Activation K (slope factor)” value was found to be 8.06 ± 0.21, the “Activation V0.5 (midpoint potential)” value was −17.0 ± 1.0 mV and the “Steady-state inactivation V0.5 (midpoint potential)” value was −52.3 ± 1.2 mV. In addition, in series [2], the “Tail current decay time constant, fast component (τ1)” value came out at 9.8 ± 0.6 ms; the “Peak current inactivation time constant, fast component (τfast)” value is 1.12 ± 0.04 ^d ms; the “Peak current inactivation time constant, slow component (τslow)” value is given as 19.00 ± 0.64 ^d ms. Moreover, the “EC10, resting modification” value in series [3] (setting [5]) came to 222 ± 82 µM. Further, the “EC10, use-dependent modification” value in series [3] (setting [6]) came to 16.9 ± 5.5 µM. In addition, the “Increase of sensitivity (EC10) to the compound by repetitive depolarization” value in series [3] (setting [7]) is “approximately 13 fold”.
Regarding `C=CCC1=C(C)[C@@H](OC(=O)[C@@H]2[C@@H](C=C(C)C)C2(C)C)CC1=O` [S-bioallethrin], in series [2] (100 μM, prepulses above 0 mV, control approximately 2% of total current), the “Increase of inactivation-resistant current relative to control” value was “approximately five-fold”. Moreover, in series [2] (100 μM), the “Effect of repetitive depolarization on modification (words)” value was “decreased slightly”. In addition, in series [2] (100 μM, listed as S-Bioallethrin), the “Effect of repetitive depolarization on modification (words)” value is on record as “no further enhancement of modification”. In addition, in series [2], the “Steady-state inactivation K (slope factor)” value was determined as 6.24 ± 0.23, the “Activation K (slope factor)” value is 7.78 ± 0.52, the “Activation V0.5 (midpoint potential)” value is listed as −19.2 ± 1.1 mV and the “Steady-state inactivation V0.5 (midpoint potential)” value is listed as −52.8 ± 1.1 mV. Besides, in series [2], the “Tail current decay time constant, fast component (τ1)” value is listed as 2.3 ± 0.4 ms; the “Peak current inactivation time constant, fast component (τfast)” value was 2.11 ± 0.12 ^d ms; the “Peak current inactivation time constant, slow component (τslow)” value is 7.30 ± 0.35 ^d ms.
As for `CC1(C)[C@H](C(=O)O[C@H](C#N)c2cccc(Oc3ccccc3)c2)[C@@H]1C=C(Br)Br` [deltamethrin], the “Acute oral LD50” value in series [4] was 95 mg/kg.
